What all share (assay type): functional
For test [1], the species on record is Rattus norvegicus. Briefly: Compound was evaluated for the inhibition of biosynthesis of prostaglandins at a concentration of 10e3 M.
Test [2] is filed under the species Rattus norvegicus. Briefly: Compound was evaluated for the inhibition of biosynthesis of prostaglandins at a concentration of 10e4 M.
In test [3] the test system is Rattus norvegicus. Briefly: Compound was assessed for ulcerogenicity in rats at a dose of 300 mg/kg.
Test [4] has as its system Rattus norvegicus. Briefly: Compound was assessed for ulcerogenicity in rats at a dose of 500 mg/kg.
The species named for test [5] is Rattus norvegicus. Briefly: Compound was evaluated for the inhibition of biosynthesis of prostaglandins at a concentration of 10e5 M.

Regarding `CN1C(C(=O)Nc2ccccc2-c2nn[nH]n2)=C(O)c2ccccc2S1(=O)=O`, the Inhibition in the test listed under Rattus norvegicus [1], in the test listed under Rattus norvegicus [2] and in the test filed under Rattus norvegicus [5] was 0% throughout. For the same compound, the Ulcer index in the test with Rattus norvegicus [3] and in the test on Rattus norvegicus [4] was 0 each time.

Consider `COc1ccc(/C=C/C(=O)Nc2ccccc2C(=O)O)cc1OC` [TRANILAST], for which the Inhibition in the test listed under Rattus norvegicus [1], in the test filed under Rattus norvegicus [2] and in the test filed under Rattus norvegicus [5] was 0% each time. For the same compound, the Ulcer index with Rattus norvegicus [3] and in the test with Rattus norvegicus [4] was 0 in each case.

The values above are taken from ChEMBL document CHEMBL1126434, “Anti-allergic and anti-inflammatory actions of 2-(tetrazole-5-yl)-4-hydroxy-2-methyl-2H-1,2-benzothiazine-3-carboxanilide 1,1-dioxide” (1992).
